Assay results from patent US20260109731A1, “NE[…] USE THEREOF” (HUNAN MINGRUI PHARMACEUTICAL CO., LTD., priority 2023, published 2026).

Assays:
[1] = Pharmacokinetic analysis of tail vein administration in mice; settings: female, ICR, mouse, 5 mg/kg; for concentration at 5 min / concentration at 1 h / concentration at 8 h: brain; for clearance / half-life: plasma, iv
Description: Female ICR mice (body weight: 20 g to 22 g) were purchased from BEIJING HFK BIOSCIENCE CO., LTD.
The animals were sacrificed at blood collection time points (5 min, 1 h and 8 h) for brain tissue collection, and the collected brain tissues were stored at −80° C. for later testing.
(§1) 100 μL of plasma sample, 10 μL of internal standard solution (100 ng/mL testosterone D-3 solution), and 310 μL of acetonitrile were accurately measured, uniformly mixed by vortexing, and centrifuged (14000 rpm, 4° C.), and a resulting supernatant was taken to obtain the plasma sample.
(§2) About 100 mg of brain tissue sample was taken, and accurately weighed, 100 μL of water and 400 μL acetonitrile were accurately added thereto, and a resulting mixture was subjected to homogenization. 100 μL of brain tissue homogenate, 10 μL of internal standard solution (100 ng/mL testosterone D-3 solution), and 310 μL of acetonitrile were accurately measured, uniformly mixed by vortexing, and centrifuged (14000 rpm, 4° C.), and a resulting supernatant was taken to obtain the brain tissue sample.
100 μL of blank plasma sample, 10 μL of mixed standard solution, 10 μL of internal standard solution (100 ng/mL testosterone D-3 solution), and 300 μL of acetonitrile were accurately measured, uniformly mixed by vortexing, and centrifuged (14000 rpm, 4° C.), and a resulting supernatant was taken to obtain the plasma matrix standard solution.
About 100 mg of blank brain tissue sample was taken, and accurately weighed, 100 μL of water and 400 μL acetonitrile were accurately added thereto, and a resulting mixture was subjected to homogenization using a homogenizer. 100 μL of brain tissue homogenate, 10 μL of mixed standard solution, 10 μL of internal standard solution (100 ng/mL testosterone D-3 solution) and 300 μL of acetonitrile were accurately measured, uniformly mixed by vortexing, and centrifuged (14000 rpm, 4° C.), and a resulting supernatant was taken to obtain the Brain tissue matrix standard solution.
The UPLC-MS/MS method with testosterone D-3 as the internal standard was used to perform analysis and determination by the standard curve method.

[2] = Pharmacokinetic analysis of tail vein administration in female rats; settings: for clearance / half-life: plasma
Description: • Female SD rats (body weight: 200 g to 220 g) were purchased from BEIJING HFK BIOSCIENCE CO., LTD.
60 female SD rats were divided into two groups (Aintravenous and Bintravenous), with 30 rats per group (5 rats per blood collection time point). The drugs Aintravenous and Bintravenous were administered via tail vein injection at 3 mg/kg each (about 1.2 mL of drug solution). Blood was collected from the orbital venous plexus at time points (5 min, 30 min, 1 h, 2 h, 4 h, and 8 h) after administration, respectively, anticoagulated with heparin, and centrifuged, and then the plasma was separated and stored at −80° C. for later testing. At 8 h after blood collection, the animals were sacrificed, and the brain and liver tissues were taken and stored at −80° C. for later testing.
as §1, with “and detected using UPLC-MS/MS (the analysis method was” for “to obtain”, “same as that in pharmacokinetic analysis in mice).” for “plasma sample.”
as §2, with “brain or liver” for “brain”, “weighed.” for “weighed,”, “and detected using UPLC-MS/MS (the analysis method was” for “to obtain”, “same as that in pharmacokinetic analysis in mice).” for “brain tissue sample.”

[3] = female SD rats, tail vein, 3 mg/kg, 8 h after administration

`CC(=O)[C@H]1CC[C@H]2[C@@H]3CC[C@H]4C[C@H](O)CC[C@]4(C)[C@H]3CC[C@]12C` [Allopregnanolone, 5α-pregnan-3α-ol-20-one, reference compound] showed a concentration at 5 min ([1]; intravenous) of 1070 ng/g, a concentration at 1 h ([1]; intravenous) of 47.3 ng/g and a concentration at 8 h ([1]; intravenous) of 14.4 ng/g. The Kp at 5 min ([1]; brain/plasma, intravenous) was 1.28, the Kp at 1 h ([1]; brain/plasma, intravenous) was 2.71 and the clearance [1] was 218 mL/min/kg. For the same molecule, the half-life [1] was 40.8 min, the “level of the administered compound in the liver” value ([2]; female SD rats, intravenous (tail vein), 3 mg/kg, 8 h after administration) was “undetectable” and the “concentration in brain tissue” value [2, 3] was “undetectable”. The concentration in plasma [2, 3] was “undetectable”, the clearance ([2]; female, SD, rat, iv, 3 mg/kg) was 109 mL/min/kg and the half-life ([2]; female, SD, rat, iv, 3 mg/kg) was 52.2 min.

`CC(=O)[C@H]1CC[C@H]2[C@@H]3CC[C@H]4C[C@H](O[N+](=O)[O-])CC[C@]4(C)[C@H]3CC[C@]12C` [Compound 1] showed a concentration at 5 min ([1]; intravenous) of 1140 ng/g, a concentration at 1 h ([1]; intravenous) of 652 ng/g and a concentration at 8 h ([1]; intravenous) of 31 ng/g. For the same molecule, the Kp at 5 min ([1]; brain/plasma, intravenous) was 0.65, the Kp at 1 h ([1]; brain/plasma, intravenous) was 7.58 and the Kp at 8 h ([1]; brain/plasma, intravenous) was 2.27. The clearance [1] was 197 mL/min/kg, the half-life [1] was 50.4 min and the “level of allopregnanolone in the liver after administration of compound 1” value ([2]; female SD rats, intravenous compound 1, 3 mg/kg, 8 h) was “undetectable”. For the same molecule, the concentration at 8 h ([2]; female, SD, rat, brain, intravenous, 3 mg/kg) was 209 ng/g, the Kp at 8 h ([2]; female, SD, rat, brain/plasma, intravenous, 3 mg/kg) was 6.68 and the concentration at 8 h ([2]; female, SD, rat, liver, iv, 3 mg/kg) was 193 ng/g. The clearance ([2]; female, SD, rat, iv, 3 mg/kg) was 87.8 mL/min/kg and the half-life ([2]; female, SD, rat, iv, 3 mg/kg) was 57.6 min.
